Source: the NIST ThermoML archive (doi:10.1021/je900137r)

Assay: molar heat capacity at saturation pressure
Conditions: Liquid, Vacuum adiabatic calorimetry

CCC [propane]
Conditions | molar heat capacity [J/K/mol]
88.92 K | 84.87
91.12 K | 84.92
92.73 K | 84.92
94.89 K | 85.02
96.47 K | 84.96
98.58 K | 85.12
100.13 K | 85.19
102.21 K | 85.32
103.73 K | 85.36
105.78 K | 85.44
107.27 K | 85.47
109.28 K | 85.76
110.76 K | 85.79
112.74 K | 85.84
114.19 K | 85.97
116.15 K | 86.05
117.58 K | 86.14
119.51 K | 86.16
120.93 K | 86.45
122.83 K | 86.51
124.23 K | 86.53
126.12 K | 86.66
127.5 K | 86.9
129.36 K | 86.88
130.73 K | 87.09
132.57 K | 87.07
133.93 K | 87.31
135.75 K | 87.22
137.1 K | 87.67
138.9 K | 87.5
140.23 K | 87.61
142.01 K | 87.94
143.34 K | 87.91
145.1 K | 88.06
146.41 K | 88.35
148.16 K | 88.33
149.46 K | 88.44
151.2 K | 88.72
152.48 K | 88.71
154.21 K | 88.83
155.47 K | 89
157.2 K | 89.06
158.45 K | 89.26
160.15 K | 89.66
161.4 K | 89.43
163.09 K | 90.05
164.34 K | 89.53
166 K | 90.04
167.25 K | 90.06
168.9 K | 90.24
170.14 K | 90.37
171.79 K | 90.38
173.01 K | 90.28
174.65 K | 90.89
175.86 K | 90.91
177.49 K | 91.25
178.7 K | 91.17
180.31 K | 91.67
181.51 K | 91.3
183.12 K | 91.84
184.31 K | 91.75
185.91 K | 92.02
187.09 K | 92.23
188.68 K | 92.09
189.85 K | 92.57
191.44 K | 92.72
192.61 K | 92.88
194.18 K | 93.05
195.34 K | 93.67
196.91 K | 93.56
198.06 K | 93.95
199.62 K | 94.02
200.76 K | 94.12
202.32 K | 94.07
203.45 K | 94.68
205.01 K | 94.36
206.14 K | 94.22
207.69 K | 94.92
208.8 K | 94.54
210.35 K | 95.41
211.45 K | 95.58
213 K | 96.05
214.1 K | 96.24
215.65 K | 96.38
216.73 K | 96.69
218.28 K | 97.14
219.35 K | 97.4
220.9 K | 96.94
221.97 K | 97.43
223.51 K | 97.28
224.57 K | 97.58
226.12 K | 98.17
227.16 K | 98.39
228.72 K | 98.66
229.75 K | 98.99
231.31 K | 99.11
232.33 K | 99.49
233.9 K | 99.63
234.9 K | 99.41
236.47 K | 99.64
237.46 K | 100.12
239.04 K | 100.21
240.02 K | 100.5
241.61 K | 100.94
242.57 K | 101.2
244.17 K | 101.8
245.12 K | 101.78
246.72 K | 102.66
247.66 K | 102.27
249.28 K | 103.18
250.2 K | 102.98
251.83 K | 103.62
252.74 K | 103.41
254.37 K | 104.07
255.27 K | 103.99
256.92 K | 104.47
257.8 K | 104.55
259.46 K | 104.97
260.32 K | 105.39
262 K | 106
262.85 K | 106.36
264.54 K | 106.11
265.38 K | 106.45
267.08 K | 107.17
267.9 K | 107.71
267.92 K | 107.58
269.62 K | 107.64
270.42 K | 108.4
270.71 K | 108.16
271.49 K | 109.25
272.15 K | 109.03
272.92 K | 109.16
273.04 K | 108.7
273.85 K | 109.09
274.7 K | 109.64
275.38 K | 109.29
275.42 K | 110.08
276.2 K | 109.72
277.24 K | 110.22
277.72 K | 110.44
277.92 K | 110.44
278.57 K | 110.68
279.78 K | 110.83
280.07 K | 110.92
280.41 K | 111.44
280.93 K | 111.66
282.32 K | 111.64
282.41 K | 112.19
282.91 K | 112.06
283.3 K | 112.78
284.77 K | 113.05
284.86 K | 112.93
285.41 K | 112.26
285.68 K | 112.86
287.13 K | 113.09
287.41 K | 113.95
287.91 K | 113.12
288.05 K | 113.08
289.5 K | 114.17
289.95 K | 114.64
290.41 K | 114.75
290.43 K | 114.57
291.86 K | 114.95
292.5 K | 115.46
292.81 K | 115.77
292.93 K | 115.51
294.24 K | 115.29
295.04 K | 116.36
295.21 K | 116
295.44 K | 116.88
296.61 K | 116.56
297.59 K | 117.55
297.6 K | 116.98
297.96 K | 117.85
298.99 K | 117.8
300 K | 118.27
300.14 K | 118.94
300.48 K | 117.96
301.38 K | 118.85
302.4 K | 119.55
302.69 K | 119.67
303.01 K | 118.38
303.77 K | 119.3
304.81 K | 120.27
305.25 K | 120.48
305.54 K | 119.64
306.16 K | 120.81
307.23 K | 121.32
307.82 K | 121.03
308.07 K | 121.52
308.57 K | 122.04
309.65 K | 121.95
310.38 K | 122.63
310.62 K | 122.47
310.98 K | 123.64
312.07 K | 123.46
312.95 K | 123.93
313.15 K | 124.63
313.4 K | 124.69
314.51 K | 124.14
315.53 K | 124.76
315.71 K | 125.89
315.83 K | 124.99
318.12 K | 125.37
318.27 K | 126.41
323.24 K | 129.01
323.35 K | 129.31
325.84 K | 130.18
325.93 K | 131.3
328.44 K | 132.33
328.51 K | 133.4
331.06 K | 135.04
331.1 K | 135.99
333.69 K | 136.44
333.7 K | 137.68
336.31 K | 139.1
336.32 K | 139.03
338.93 K | 140.95
338.96 K | 142.73
341.56 K | 144.64
341.61 K | 145.97
344.21 K | 149.14
344.27 K | 148.36
